The numbers were not newly measured in patent publication US12090420B2, “Systems and methods for recovering amines and their derivatives from aqueous mixtures” (INV Nylon Chemicals Americas, LLC, priority 2018, dated 2024), which cites them from elsewhere.

As usually defined, the pKa is the pH at which an ionisable group is half protonated.

Molecules are shown by their SMILES.

Settings in one data set: not given
As to `CCCCCCN` [Hexylamine], the “highest pKa value” is 10.5.

Staying with this data set, now noted: diamines.
As to `NCCCCN` [1,4-butanediamine], the “Higher pKa” value is recorded as 11.2 and the “Lower pKa” value is on record as 9.7.

Still in this data set, the particulars now being: diamines; 25° C.
Turning to `NCCCCCN` [1,5-pentanediamine], the “Higher pKa” value is given as 10.93 and the “Lower pKa” value is reported as 10.05.

Regarding `NCCCCCCN` [1,6-hexanediamine], the “Higher pKa” value is given as 11.02 and the “Lower pKa” value is listed as 10.24.

Staying with this data set, now noted: monoamines; single pKa taken as highest pKa.
`CCCCCCCN` [Heptylamine]: the pKa is recorded as 10.67.

Regarding `Cc1cccnc1` [3-Methylpyridine], the pKa was 5.52.

For `c1ccc2cnccc2c1` [Isoquinoline], the pKa is given as 5.42.

For `c1ccc2c(c1)cnc1ccccc12` [Benzo[c]quinoline], the pKa is 5.58.

On to `CCCCCN` [Pentylamine], for which the pKa is recorded as 10.63.

Take `CCCCCCN` [Hexylamine]: the pKa is reported as 10.56.

Turning to `CCCCCCCCCCCCCCCCN` [Hexadecylamine], the pKa is listed as 10.63.

In the case of `CCCCCCCCN` [Octylamine], the pKa is recorded as 10.65.

Consider `Cc1ccncc1` [4-Methylpyridine], for which the pKa is 6.08.

For `CC(C)CN` [iso-Butylamine], the pKa is 10.43.

Consider `CCc1ccccn1` [2-Ethylpyridine], for which the pKa is 5.89.

Take `CCCCCCCCCN` [Nonylamine]: the pKa is 10.64.
